One may read the Kd as the equilibrium constant for the complex coming apart.

Test [1] relates to 2PK3 mouse B lymphoma cells. Particulars: varying tetramer concentrations; cells lack TCR-CD3.
Test [2] has as its target T1, CD3ε expressed on Jurkat cells (Homo sapiens, UniProt P07766).
T1 construct: against CD3ε expressed on Jurkat cells; host or cells: Jurkat T cells (E6-1)
Briefly: Binding assay of peptide tetramers on Jurkat cells by flow cytometry. Particulars: for Kd: peptide tetramer on Alexa Fluor 488 streptavidin, CD3ε-expressing Jurkat cells, read-out: affinity (Kd); for binding of peptide tetramers to Jurkat cells: varying tetramer concentrations, 30 minutes on ice. As to the method:
The results were analyzed using FlowJo software.
On the technique in general: In flow cytometry, cells or beads pass a laser one at a time.

Test [3] concerns the target T2, human recombinant CD3ε protein (Homo sapiens, UniProt P07766).
T2 construct: purchased Sino Biological
Briefly: Biopanning of Ph.D.-7 phage display peptide library, sequencing of plaques. Particulars: after the 5th round of biopanning, 18 out of 20 plaques; phage clone displaying the sequence. Here is the method:
1.2 Biopanning: Screening of the Ph.D.-7 phage display peptide library on human recombinant CD3ε protein as the target protein was carried out according to the manufacturer's protocol with modifications. Briefly, 50 μl of a 50% aqueous suspension of Pierce protein A/G magnetic beads was washed with 1 ml of TBST washing buffer (tris-buffered saline with 0.1% tween) on a magnetic separator and blocked in blocking buffer (0.1 M NaHCO3 (pH 8.6) with 0.5% (w/v) BSA) for 1 h at 4° C. on a rotator. Two picomoles of target protein was mixed with 10^11 pfu (plaque-forming unit) of the phage library in 200 μl of TBST buffer and incubated for 15 minutes at room temperature on a rotator and then incubated with pre-washed and pre-blocked magnetic beads for 15 minutes at room temperature on a rotator. After the microbeads were washed vigorously for 15 times with 1 ml TBST, the bound phage was eluted by 1 ml of glycine buffer (0.2 M Glycine-HCl (pH 2.2)+0.1% (w/v) BSA) and neutralized by addition of 150 μl of 1 M Tris-HCl (pH 9.1). […]
1.3 DNA Sequencing of Phage Clones: After the third and fifth round of biopanning, the ssDNA of selected phage clones was harvested following the standard protocol (NEB). […] The purified DNA of each clone was sequenced by Sanger sequencing (UAB Genomics Core Laboratories) using the −96 gIII primer and analyzed using Geneious Prime 2019 software suite.

T1 sequence (P07766 23-207): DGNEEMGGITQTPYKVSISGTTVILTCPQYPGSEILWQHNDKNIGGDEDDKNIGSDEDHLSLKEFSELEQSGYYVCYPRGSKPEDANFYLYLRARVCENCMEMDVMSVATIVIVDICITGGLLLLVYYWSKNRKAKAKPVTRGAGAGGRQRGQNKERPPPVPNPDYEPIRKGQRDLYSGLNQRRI
T1 sequence (P09693 23-182 partner): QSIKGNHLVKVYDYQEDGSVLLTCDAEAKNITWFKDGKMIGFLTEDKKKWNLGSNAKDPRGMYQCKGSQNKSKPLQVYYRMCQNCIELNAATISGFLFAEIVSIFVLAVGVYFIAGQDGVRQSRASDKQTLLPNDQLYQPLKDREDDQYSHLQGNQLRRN
T1 sequence (P04234 22-171 partner): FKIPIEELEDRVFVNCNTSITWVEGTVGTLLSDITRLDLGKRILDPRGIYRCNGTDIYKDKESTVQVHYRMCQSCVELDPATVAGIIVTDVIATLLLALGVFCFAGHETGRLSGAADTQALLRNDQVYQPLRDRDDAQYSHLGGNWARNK
T1 sequence (P20963 22-164 partner): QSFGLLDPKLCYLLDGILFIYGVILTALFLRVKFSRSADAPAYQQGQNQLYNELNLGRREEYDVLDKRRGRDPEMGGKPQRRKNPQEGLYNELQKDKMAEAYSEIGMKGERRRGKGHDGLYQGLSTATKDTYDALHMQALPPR
T1 sequence (P01848 whole entry partner): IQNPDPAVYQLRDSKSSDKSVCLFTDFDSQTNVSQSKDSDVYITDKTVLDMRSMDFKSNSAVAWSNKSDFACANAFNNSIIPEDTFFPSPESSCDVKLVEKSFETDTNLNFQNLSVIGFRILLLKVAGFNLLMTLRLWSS
T1 sequence (P01850 whole entry partner): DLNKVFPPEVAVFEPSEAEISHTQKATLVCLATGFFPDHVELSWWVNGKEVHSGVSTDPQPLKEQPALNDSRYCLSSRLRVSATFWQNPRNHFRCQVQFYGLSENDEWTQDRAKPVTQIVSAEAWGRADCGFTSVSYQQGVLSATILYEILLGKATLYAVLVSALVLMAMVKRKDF
T2 sequence (P07766 23-207): as the sequence (P07766 23-207) above

Turning to “FWSSPQMGGGS [SEQ ID NO: 30]-PEG6-K-biotin [anti-CD3ε peptide 11 tetramer]”, the “binding of peptide tetramers to 2PK3 cells” value in test [1] is listed as “no specific attachment”. Besides, in test [2], the Kd is around 100 µM and the “binding of peptide tetramers to Jurkat cells” value is given as “incremental binding to the Jurkat cells in a dose-dependent manner”.

Turning to WSLGYTG [anti-CD3ε peptide 13], the “share of tested plaques occupied by the clone” value in test [3] is listed as 90%.

For the substance “WSLGYTGGGGS [SEQ ID NO: 31]-PEG6-K-biotin [anti-CD3ε peptide 13 tetramer]”, in test [1], the “binding of peptide tetramers to 2PK3 cells” value was “no specific attachment”. In test [2], the Kd was around 100 µM and the “binding of peptide tetramers to Jurkat cells” value is recorded as “incremental binding to the Jurkat cells in a dose-dependent manner”.

(Values after patent US12006373B1, “Identification and evaluation of novel peptide ligands specific to human CD3 epsilon” (Board of Trustees of the University of Alabama, for and on …, priority 2020, dated 2024).)
